Results reported in ChEMBL document CHEMBL1201862, “PubChem BioAssay data set” (2004).
Active and inactive are the calls of the source.

What was measured:
[1] = molecular target: Chaperone protein dnaK (Escherichia coli, UniProt C3TRK2); experiment: DnaK beta-domain binding affinity, SAR follow-up, orthogonal assay for DnaK modulator project, biophysical, isothermal titration calorimetry, full-length DnaK (AID 1495)
[2] = molecular target: Lysosomal acid glucosylceramidase (Homo sapiens, UniProt P04062); experiment: Dose response cell-based high throughput screening assay to identify enhancers of beta-glucosidase activity. [Related pubchem assays: 784 ]; assay type: functional
[3] = molecular target: Cytochrome P450 2D6 (Homo sapiens, UniProt P10635); experiment: qHTS Assay for Inhibitors and Substrates of Cytochrome P450 2D6. [Related pubchem assays: 410 ]; assay type: ADME; conditions: read-out: Potency
[4] = molecular target: Melanin-concentrating hormone receptor 1 (Homo sapiens, UniProt Q99705); experiment: Late-stage fluorescence-based counterscreen for antagonists of the G-protein coupled receptor 7 (GPR7): cell-based dose response assay to identify antagonists of the melanin-concentrating hormone receptor 1 (MCHR1). [Related pubchem assays (depositor defined):AID1861, AID1880, AID1952, AID2148, AID2251, AID2257, AID485339]; assay type: functional;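 further: stimulated with 30 nM MCH peptide agonist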
[5] = test system: HEK293; experiment: Fluorescence-based counterscreen for potentiators or agonists of NPY-Y2: cell-based high-throughput dose response assay to identify inhibitors of cyclic nucleotide gated ion channel (CNGC) activity. In this assay, the parental HEK293 cell line transfected with a cyclic-nucleotide gated ion channel (CNGC)-based cAMP sensor is used to measure inhibition of isoproterenol-induced CNGC activity by test compound.; assay type: functional; conditions: Homo sapiens;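 further: stimulus is 1 µM isoproterenol at EC100 plus PDE inhibitor Ro 20-1724 at 25 µM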
[6] = molecular target: T1, Neuropeptide Y receptor type 2 (Homo sapiens, UniProt P49146); experiment: Fluorescence-based cell-based high-throughput dose response assay for agonists of NPY-Y2. [Related pubchem assays: 1703 (Screening assay (CNGC inhibitors).), 1359 (Screening assay (NPY-Y2 potentiators or agonists).), 1304 (Screening assay (NPY-Y1 potentiators or agonists).), 1710 (Screening assay (NPY-Y2 agonists).), 1791 (Summary AID.)]; assay type: functional
[7] = molecular target: T2, Neuropeptide Y receptor type 1 (Homo sapiens, UniProt P25929); experiment: Fluorescence-based counterscreen for agonists of NPY-Y2: cell-based high-throughput dose response assay for agonists of NPY-Y1.; assay type: functional
[8] = molecular target: T3, Bcl-2-like protein 10 (Homo sapiens, UniProt Q9HD36); experiment: displacers of TR3 peptide from Bcl-B, primary screen, selectivity assay for Bfl-1 inhibitor project, biochemical, fluorescence polarization, FITC-TR3 peptide (AID 748);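 further: fluorescence polarization from a fluorescein-labelled TR3 peptide binding purified Bcl-B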
T3 sequence (Q9HD36 whole entry): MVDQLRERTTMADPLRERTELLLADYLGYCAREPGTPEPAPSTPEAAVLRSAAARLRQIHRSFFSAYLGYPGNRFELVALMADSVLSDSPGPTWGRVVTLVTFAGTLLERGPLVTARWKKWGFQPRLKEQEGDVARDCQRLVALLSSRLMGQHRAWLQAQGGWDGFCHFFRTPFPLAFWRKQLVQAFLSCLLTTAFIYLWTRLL

[9] = molecular target: T4, Estrogen receptor (Homo sapiens, UniProt P03372); experiment: potentiators of ERα–SRC-1 coactivator binding, dose response, biochemical, TR-FRET, ERα LBD (AID 737)
T4 sequence (P03372 whole entry): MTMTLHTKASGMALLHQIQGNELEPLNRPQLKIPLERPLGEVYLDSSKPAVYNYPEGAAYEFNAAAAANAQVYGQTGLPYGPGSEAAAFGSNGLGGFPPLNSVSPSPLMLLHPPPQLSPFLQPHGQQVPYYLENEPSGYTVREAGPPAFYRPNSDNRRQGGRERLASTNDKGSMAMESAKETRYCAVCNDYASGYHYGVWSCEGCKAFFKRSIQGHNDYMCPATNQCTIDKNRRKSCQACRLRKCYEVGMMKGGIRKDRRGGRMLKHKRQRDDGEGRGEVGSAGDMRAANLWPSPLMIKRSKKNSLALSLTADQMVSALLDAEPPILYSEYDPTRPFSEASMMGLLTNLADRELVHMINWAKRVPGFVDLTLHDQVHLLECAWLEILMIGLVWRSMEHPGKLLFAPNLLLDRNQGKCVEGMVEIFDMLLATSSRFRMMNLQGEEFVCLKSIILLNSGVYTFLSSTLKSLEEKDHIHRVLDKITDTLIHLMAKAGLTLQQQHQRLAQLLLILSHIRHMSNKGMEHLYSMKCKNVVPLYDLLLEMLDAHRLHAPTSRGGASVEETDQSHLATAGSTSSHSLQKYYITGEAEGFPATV

[10] = molecular target: T2, Neuropeptide Y receptor type 1; assay type: functional
[11] = molecular target: T1, Neuropeptide Y receptor type 2; assay type: functional, cell-based

T1 sequence (P49146 whole entry): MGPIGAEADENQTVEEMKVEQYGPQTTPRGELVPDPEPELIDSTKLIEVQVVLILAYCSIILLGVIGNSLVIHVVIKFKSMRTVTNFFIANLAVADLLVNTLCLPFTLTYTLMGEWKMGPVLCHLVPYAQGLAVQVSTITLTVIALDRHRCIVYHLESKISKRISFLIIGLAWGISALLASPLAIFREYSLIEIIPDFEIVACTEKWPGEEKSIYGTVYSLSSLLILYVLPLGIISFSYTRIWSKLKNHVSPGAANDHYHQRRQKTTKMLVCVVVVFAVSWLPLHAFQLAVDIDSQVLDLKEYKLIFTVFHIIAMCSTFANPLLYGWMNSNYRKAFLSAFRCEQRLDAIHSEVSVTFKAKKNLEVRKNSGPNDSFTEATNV
T2 sequence (P25929 whole entry): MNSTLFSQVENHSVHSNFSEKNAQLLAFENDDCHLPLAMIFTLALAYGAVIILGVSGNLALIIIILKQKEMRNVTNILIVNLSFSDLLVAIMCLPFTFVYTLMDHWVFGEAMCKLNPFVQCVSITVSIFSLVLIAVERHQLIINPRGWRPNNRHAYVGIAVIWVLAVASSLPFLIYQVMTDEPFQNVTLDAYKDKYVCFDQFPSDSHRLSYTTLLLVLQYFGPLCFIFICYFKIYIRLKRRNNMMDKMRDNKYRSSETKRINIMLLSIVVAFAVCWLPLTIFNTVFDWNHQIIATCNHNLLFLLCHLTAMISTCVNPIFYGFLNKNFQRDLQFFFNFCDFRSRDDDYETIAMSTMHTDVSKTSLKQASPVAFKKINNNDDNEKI
Sequence of Cytochrome P450 2D6 (P10635 whole entry): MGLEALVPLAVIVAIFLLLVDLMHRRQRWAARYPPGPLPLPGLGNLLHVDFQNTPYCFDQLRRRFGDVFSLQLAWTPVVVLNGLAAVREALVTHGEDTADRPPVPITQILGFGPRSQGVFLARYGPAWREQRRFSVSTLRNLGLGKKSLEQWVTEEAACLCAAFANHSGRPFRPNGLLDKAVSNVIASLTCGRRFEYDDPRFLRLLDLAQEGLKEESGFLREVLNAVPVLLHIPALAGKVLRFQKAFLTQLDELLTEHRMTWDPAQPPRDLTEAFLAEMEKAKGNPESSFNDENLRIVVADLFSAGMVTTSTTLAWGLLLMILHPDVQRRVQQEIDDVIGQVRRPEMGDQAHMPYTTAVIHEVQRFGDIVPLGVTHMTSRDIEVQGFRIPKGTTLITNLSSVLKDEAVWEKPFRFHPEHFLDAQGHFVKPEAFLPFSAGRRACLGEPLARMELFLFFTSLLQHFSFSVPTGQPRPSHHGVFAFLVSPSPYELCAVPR
Sequence of Lysosomal acid glucosylceramidase (P04062 whole entry): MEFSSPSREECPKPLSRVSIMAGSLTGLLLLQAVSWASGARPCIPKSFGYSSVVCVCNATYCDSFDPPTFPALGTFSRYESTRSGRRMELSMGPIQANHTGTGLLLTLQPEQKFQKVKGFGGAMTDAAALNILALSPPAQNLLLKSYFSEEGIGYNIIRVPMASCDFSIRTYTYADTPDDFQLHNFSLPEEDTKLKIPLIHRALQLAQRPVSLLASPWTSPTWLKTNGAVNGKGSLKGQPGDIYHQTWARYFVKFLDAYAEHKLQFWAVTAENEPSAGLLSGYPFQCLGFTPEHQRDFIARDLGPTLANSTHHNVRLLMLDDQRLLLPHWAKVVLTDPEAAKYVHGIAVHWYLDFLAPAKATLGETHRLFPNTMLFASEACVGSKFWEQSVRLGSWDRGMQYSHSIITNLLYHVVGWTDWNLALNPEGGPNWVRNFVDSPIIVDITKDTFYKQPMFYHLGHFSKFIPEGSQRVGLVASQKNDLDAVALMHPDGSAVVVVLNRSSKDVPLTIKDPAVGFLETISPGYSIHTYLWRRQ
Sequence of Chaperone protein dnaK (C3TRK2 whole entry): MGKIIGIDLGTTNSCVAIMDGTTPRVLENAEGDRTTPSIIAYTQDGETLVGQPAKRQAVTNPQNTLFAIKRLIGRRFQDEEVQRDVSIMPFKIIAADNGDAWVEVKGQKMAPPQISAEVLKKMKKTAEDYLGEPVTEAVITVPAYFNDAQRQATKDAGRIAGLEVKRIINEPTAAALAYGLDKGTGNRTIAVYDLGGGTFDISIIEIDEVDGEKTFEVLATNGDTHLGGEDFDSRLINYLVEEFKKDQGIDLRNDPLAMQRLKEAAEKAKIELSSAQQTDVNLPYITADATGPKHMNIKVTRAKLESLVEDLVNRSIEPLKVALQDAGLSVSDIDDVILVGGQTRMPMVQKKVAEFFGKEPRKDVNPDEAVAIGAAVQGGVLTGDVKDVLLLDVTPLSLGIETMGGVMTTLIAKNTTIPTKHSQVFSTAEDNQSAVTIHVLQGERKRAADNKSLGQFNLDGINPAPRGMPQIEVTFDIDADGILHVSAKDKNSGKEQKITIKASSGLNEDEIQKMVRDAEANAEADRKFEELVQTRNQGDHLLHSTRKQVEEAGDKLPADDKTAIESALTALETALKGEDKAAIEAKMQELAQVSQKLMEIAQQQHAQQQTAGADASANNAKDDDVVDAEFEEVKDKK
Sequence of Melanin-concentrating hormone receptor 1 (Q99705 whole entry): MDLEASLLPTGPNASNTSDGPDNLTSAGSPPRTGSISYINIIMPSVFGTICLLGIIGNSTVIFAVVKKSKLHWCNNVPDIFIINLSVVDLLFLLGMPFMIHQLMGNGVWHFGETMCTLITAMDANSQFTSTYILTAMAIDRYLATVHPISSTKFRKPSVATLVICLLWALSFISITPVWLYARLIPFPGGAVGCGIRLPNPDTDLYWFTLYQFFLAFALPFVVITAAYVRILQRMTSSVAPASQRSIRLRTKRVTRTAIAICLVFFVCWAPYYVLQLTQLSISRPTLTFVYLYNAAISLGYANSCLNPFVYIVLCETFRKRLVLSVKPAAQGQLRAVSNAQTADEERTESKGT

## O=C(NCc1ccccc1O)c1cccs1
[1]
  Kd: 2.3 µM (active)

## COC(=O)c1cn(C(=O)c2cccs2)c2ccccc12
[2]
  EC50: > 50 µM (not active)

## CCOC(=O)OCC1C=C[C@H](c2cc(-c3ccccc3)ccc2O)C(c2ccc(C(C)=O)cc2)O1 (stereo partly specified)
[3]
  AC50: 6.31 µM (inconclusive)

## CCc1ccc(Oc2c(Cl)cnn(-c3ccc(C)cc3)c2=O)cc1
[4]
  IC50: 5 µM (active)

## O=C(Nc1sc2c(c1-c1nc3ccccc3[nH]1)CCCC2)C1CC1
[5]
  EC50: > 35.4 µM (not active)
[6]
  EC50: > 35.4 µM (not active)
[7]
  EC50: 17.3 µM (not active)

## Cc1ccc(-c2nnc(S)n2/N=C/C=C/c2ccccc2[N+](=O)[O-])cc1
[8]
  IC50: > 100 µM (inactive)
[9]
  EC50: 6.52 µM (active)

## O=C(CN(Cc1ccc2c(c1)OCO2)C(=O)CSc1nc2ccccc2o1)NC1CCCCC1
[10]
  IC50: 8.58 µM (active)
[11]
  IC50: 13.7 µM (not active)
